Source: ChEMBL document CHEMBL3608278 (J Med Chem, 2015)

Tests used:
[1] = molecular target: T1, Potassium voltage-gated channel subfamily A member 3 (Homo sapiens, UniProt P22001); parameters: species or system Blood
[2] = molecular target: T1, Potassium voltage-gated channel subfamily A member 3; assay: cell-based; parameters: species or system Blood
[3] = molecular target: T1, Potassium voltage-gated channel subfamily A member 3; assay type: cell-based, CHO-K1

T1 sequence (P22001 whole entry): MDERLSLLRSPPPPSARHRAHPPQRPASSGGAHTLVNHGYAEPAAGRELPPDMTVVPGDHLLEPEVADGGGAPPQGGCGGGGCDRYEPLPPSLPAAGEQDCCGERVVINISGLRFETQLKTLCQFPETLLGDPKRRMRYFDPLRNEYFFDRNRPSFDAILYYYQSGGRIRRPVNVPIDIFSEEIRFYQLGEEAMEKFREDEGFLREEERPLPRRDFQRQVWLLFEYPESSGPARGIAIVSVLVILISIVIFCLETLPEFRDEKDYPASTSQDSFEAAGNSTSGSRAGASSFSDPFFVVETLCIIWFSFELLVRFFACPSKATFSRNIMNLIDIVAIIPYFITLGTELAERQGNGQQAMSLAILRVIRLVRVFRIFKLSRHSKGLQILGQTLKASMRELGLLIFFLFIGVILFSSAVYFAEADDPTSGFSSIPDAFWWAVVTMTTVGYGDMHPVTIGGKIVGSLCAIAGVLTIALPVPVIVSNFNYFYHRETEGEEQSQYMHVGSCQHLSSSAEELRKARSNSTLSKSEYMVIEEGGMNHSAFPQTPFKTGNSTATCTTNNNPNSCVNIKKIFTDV

Row | SMILES | IC50 [1] [nM] | IC50 [2] [nM] | IC50 [3] [nM]
1 | CC[C@H](C)[C@@H]1NC(=O)[C@@H](NC(=O)[C@H](CO)NC(=O)[C@@H](N)CCCNC(=N)N)CSSC[C@@H](C(=O)O)NC(=O)[C@H]([C@@H](C)O)NC(=O)CNC(=O)[C@@H]2CSSC[C@@H]3NC(=O)[C@H](CCC(N)=O)NC(=O)[C@H](Cc4ccccc4)NC(=O)[C@H](C)NC(=O)[C@H]([C@@H](C)O)NC(=O)[C@H](CSSC[C@H](NC(=O)[C@H](Cc4ccccc4)NC(=O)[C@H](CO)NC(=O)[C@H](CC(C)C)NC(=O)[C@H](CCCNC(=N)N)NC(=O)[C@H](Cc4ccc(O)cc4)NC(=O)[C@H](CCCCN)NC(=O)[C@H](CCSC)NC(=O)[C@H](CO)NC(=O)[C@H](C)NC(=O)[C@H](CCCCN)NC3=O)C(=O)N[C@@H](CCCNC(=N)N)C(=O)N[C@@H](CCCCN)C(=O)N[C@@H]([C@@H](C)O)C(=O)N2)NC(=O)[C@H](CCCNC(=N)N)NC(=O)[C@H](CO)NC(=O)[C@H](CCCCN)NC(=O)[C@@H]2CCCN2C(=O)[C@H]([C@@H](C)CC)NC(=O)[C@H]([C@@H](C)O)NC(=O)[C@H](CC(=O)O)NC1=O | 0.556 | 0.301 | 0.24
2 | CC[C@H](C)[C@@H]1NC(=O)[C@@H](NC(=O)[C@H](CO)NC(=O)[C@@H](N)CCCNC(=N)N)CSSC[C@@H](C(=O)O)NC(=O)[C@H]([C@@H](C)O)NC(=O)CNC(=O)[C@@H]2CSSC[C@@H]3NC(=O)[C@H](CCC(N)=O)NC(=O)[C@H](Cc4ccccc4)NC(=O)[C@H](C)NC(=O)[C@H]([C@@H](C)O)NC(=O)[C@H](CSSC[C@H](NC(=O)[C@H](Cc4ccccc4)NC(=O)[C@H](CO)NC(=O)[C@H](CC(C)C)NC(=O)[C@H](CCCNC(=N)N)NC(=O)[C@H](C)NC(=O)[C@H](CCCCN)NC(=O)[C@H](CCSC)NC(=O)[C@H](CO)NC(=O)[C@H](Cc4cnc[nH]4)NC(=O)[C@H](CCCCN)NC3=O)C(=O)N[C@@H](CCCNC(=N)N)C(=O)N[C@@H](CCCCN)C(=O)N[C@@H]([C@@H](C)O)C(=O)N2)NC(=O)[C@H](CCCNC(=N)N)NC(=O)[C@H](CO)NC(=O)[C@H](CCCCN)NC(=O)[C@@H]2CCCN2C(=O)[C@H]([C@@H](C)CC)NC(=O)[C@H]([C@@H](C)O)NC(=O)[C@H](CC(=O)O)NC1=O | 5.67 | 3.09 | 0.261
3 | CC[C@H](C)[C@@H]1NC(=O)[C@@H](NC(=O)[C@H](CO)NC(=O)[C@@H](N)CCCNC(=N)N)CSSC[C@@H](C(=O)O)NC(=O)[C@H]([C@@H](C)O)NC(=O)CNC(=O)[C@@H]2CSSC[C@@H]3NC(=O)[C@H](CCC(N)=O)NC(=O)[C@H](Cc4ccccc4)NC(=O)[C@H](C)NC(=O)[C@H]([C@@H](C)O)NC(=O)[C@H](CSSC[C@H](NC(=O)[C@H](C)NC(=O)[C@H](CO)NC(=O)[C@H](CC(C)C)NC(=O)[C@H](CCCNC(=N)N)NC(=O)[C@H](Cc4ccc(O)cc4)NC(=O)[C@H](CCCCN)NC(=O)[C@H](CCSC)NC(=O)[C@H](CO)NC(=O)[C@H](Cc4cnc[nH]4)NC(=O)[C@H](CCCCN)NC3=O)C(=O)N[C@@H](CCCNC(=N)N)C(=O)N[C@@H](CCCCN)C(=O)N[C@@H]([C@@H](C)O)C(=O)N2)NC(=O)[C@H](CCCNC(=N)N)NC(=O)[C@H](CO)NC(=O)[C@H](CCCCN)NC(=O)[C@@H]2CCCN2C(=O)[C@H]([C@@H](C)CC)NC(=O)[C@H]([C@@H](C)O)NC(=O)[C@H](CC(=O)O)NC1=O | 8.01 | 1.5 | 0.275
4 | CC[C@H](C)[C@@H]1NC(=O)[C@@H](NC(=O)[C@H](CO)NC(=O)[C@@H](N)CCCNC(=N)N)CSSC[C@@H](C(=O)O)NC(=O)[C@H]([C@@H](C)O)NC(=O)CNC(=O)[C@@H]2CSSC[C@@H]3NC(=O)[C@H](CCC(N)=O)NC(=O)[C@H](Cc4ccccc4)NC(=O)[C@H](C)NC(=O)[C@H]([C@@H](C)O)NC(=O)[C@H](CSSC[C@H](NC(=O)[C@H](Cc4ccccc4)NC(=O)[C@H](CO)NC(=O)[C@H](CC(C)C)NC(=O)[C@H](CCCNC(=N)N)NC(=O)[C@H](Cc4ccc(O)cc4)NC(=O)[C@H](CCCCN)NC(=O)[C@H](CCSC)NC(=O)[C@H](CO)NC(=O)[C@H](Cc4cnc[nH]4)NC(=O)[C@H](CCCCN)NC3=O)C(=O)N[C@@H](CCCNC(=N)N)C(=O)N[C@@H](C)C(=O)N[C@@H]([C@@H](C)O)C(=O)N2)NC(=O)[C@H](CCCNC(=N)N)NC(=O)[C@H](CO)NC(=O)[C@H](CCCCN)NC(=O)[C@@H]2CCCN2C(=O)[C@H]([C@@H](C)CC)NC(=O)[C@H]([C@@H](C)O)NC(=O)[C@H](CC(=O)O)NC1=O | 0.308 | 0.186 | 0.173
5 | CC[C@H](C)[C@@H]1NC(=O)[C@@H](NC(=O)[C@H](CO)NC(=O)[C@@H](N)CCCNC(=N)N)CSSC[C@@H](C(=O)O)NC(=O)[C@H](C)NC(=O)CNC(=O)[C@@H]2CSSC[C@@H]3NC(=O)[C@H](CCC(N)=O)NC(=O)[C@H](Cc4ccccc4)NC(=O)[C@H](C)NC(=O)[C@H]([C@@H](C)O)NC(=O)[C@H](CSSC[C@H](NC(=O)[C@H](Cc4ccccc4)NC(=O)[C@H](CO)NC(=O)[C@H](CC(C)C)NC(=O)[C@H](CCCNC(=N)N)NC(=O)[C@H](Cc4ccc(O)cc4)NC(=O)[C@H](CCCCN)NC(=O)[C@H](CCSC)NC(=O)[C@H](CO)NC(=O)[C@H](Cc4cnc[nH]4)NC(=O)[C@H](CCCCN)NC3=O)C(=O)N[C@@H](CCCNC(=N)N)C(=O)N[C@@H](CCCCN)C(=O)N[C@@H]([C@@H](C)O)C(=O)N2)NC(=O)[C@H](CCCNC(=N)N)NC(=O)[C@H](CO)NC(=O)[C@H](CCCCN)NC(=O)[C@@H]2CCCN2C(=O)[C@H]([C@@H](C)CC)NC(=O)[C@H]([C@@H](C)O)NC(=O)[C@H](CC(=O)O)NC1=O | 0.083 | 0.053 | 0.133
6 | CC[C@H](C)[C@@H]1NC(=O)[C@@H](NC(=O)[C@H](Cc2cccc3ccccc23)NC(=O)[C@@H](N)CCCNC(=N)N)CSSC[C@@H](C(=O)O)NC(=O)[C@H]([C@@H](C)O)NC(=O)CNC(=O)[C@@H]2CSSC[C@@H]3NC(=O)[C@H](CCC(N)=O)NC(=O)[C@H](Cc4ccccc4)NC(=O)[C@H](C)NC(=O)[C@H]([C@@H](C)O)NC(=O)[C@H](CSSC[C@H](NC(=O)[C@H](Cc4ccccc4)NC(=O)[C@H](CO)NC(=O)[C@H](CC(C)C)NC(=O)[C@H](CCCNC(=N)N)NC(=O)[C@H](Cc4ccc(O)cc4)NC(=O)[C@H](CCCCN)NC(=O)[C@H](CCSC)NC(=O)[C@H](CO)NC(=O)[C@H](Cc4cnc[nH]4)NC(=O)[C@H](CCCCN)NC3=O)C(=O)N[C@@H](CCCNC(=N)N)C(=O)N[C@@H](CCCCN)C(=O)N[C@@H]([C@@H](C)O)C(=O)N2)NC(=O)[C@H](CCCNC(=N)N)NC(=O)[C@H](CO)NC(=O)[C@H](CCCCN)NC(=O)[C@@H]2CCCN2C(=O)[C@H]([C@@H](C)CC)NC(=O)[C@H]([C@@H](C)O)NC(=O)[C@H](CC(=O)O)NC1=O | 0.258 | 0.223 | 0.257
7 | CC[C@H](C)[C@@H]1NC(=O)[C@H]([C@@H](C)O)NC(=O)[C@H](CC(=O)O)NC(=O)[C@H](Cc2cccc3ccccc23)NC(=O)[C@@H](NC(=O)[C@H](CO)NC(=O)[C@@H](N)CCCNC(=N)N)CSSC[C@@H](C(=O)O)NC(=O)[C@H]([C@@H](C)O)NC(=O)CNC(=O)[C@@H]2CSSC[C@@H]3NC(=O)[C@H](CCC(N)=O)NC(=O)[C@H](Cc4ccccc4)NC(=O)[C@H](C)NC(=O)[C@H]([C@@H](C)O)NC(=O)[C@H](CSSC[C@H](NC(=O)[C@H](Cc4ccccc4)NC(=O)[C@H](CO)NC(=O)[C@H](CC(C)C)NC(=O)[C@H](CCCNC(=N)N)NC(=O)[C@H](Cc4ccc(O)cc4)NC(=O)[C@H](CCCCN)NC(=O)[C@H](CCSC)NC(=O)[C@H](CO)NC(=O)[C@H](Cc4cnc[nH]4)NC(=O)[C@H](CCCCN)NC3=O)C(=O)N[C@@H](CCCNC(=N)N)C(=O)N[C@@H](CCCCN)C(=O)N[C@@H]([C@@H](C)O)C(=O)N2)NC(=O)[C@H](CCCNC(=N)N)NC(=O)[C@H](CO)NC(=O)[C@H](CCCCN)NC(=O)[C@@H]2CCCN2C1=O | 0.318 | 0.274 | 0.154
8 | CC[C@H](C)[C@@H]1NC(=O)[C@@H](NC(=O)[C@H](CO)NC(=O)[C@@H](N)CCCNC(=N)N)CSSC[C@@H](C(=O)O)NC(=O)[C@H]([C@@H](C)O)NC(=O)CNC(=O)[C@@H]2CSSC[C@@H]3NC(=O)[C@H](CCC(N)=O)NC(=O)[C@H](Cc4ccccc4)NC(=O)[C@H](C)NC(=O)[C@H]([C@@H](C)O)NC(=O)[C@H](CSSC[C@H](NC(=O)[C@H](Cc4ccccc4)NC(=O)[C@H](CO)NC(=O)[C@H](CC(C)C)NC(=O)[C@H](CCCNC(=N)N)NC(=O)[C@H](Cc4ccc(O)cc4)NC(=O)[C@H](CCCCN)NC(=O)[C@H](CCSC)NC(=O)[C@H](CO)NC(=O)[C@H](Cc4cnc[nH]4)NC(=O)[C@H](CCCCN)NC3=O)C(=O)N[C@@H](CCCNC(=N)N)C(=O)N[C@@H](CCCCN)C(=O)N[C@@H]([C@@H](C)O)C(=O)N2)NC(=O)[C@H](CCCNC(=N)N)NC(=O)[C@H](CO)NC(=O)[C@H](CCCCN)NC(=O)[C@@H]2CCCN2C(=O)[C@H]([C@@H](C)CC)NC(=O)[C@H]([C@@H](C)O)NC(=O)[C@H](Cc2cccc3ccccc23)NC1=O | > 31.9 | 70.4 | > 3.33
9 | CC[C@H](C)[C@@H]1NC(=O)[C@@H](NC(=O)[C@H](CO)NC(=O)[C@@H](N)CCCNC(=N)N)CSSC[C@@H](C(=O)O)NC(=O)[C@H]([C@@H](C)O)NC(=O)CNC(=O)[C@@H]2CSSC[C@@H]3NC(=O)[C@H](CCC(N)=O)NC(=O)[C@H](Cc4ccccc4)NC(=O)[C@H](C)NC(=O)[C@H]([C@@H](C)O)NC(=O)[C@H](CSSC[C@H](NC(=O)[C@H](Cc4ccccc4)NC(=O)[C@H](CO)NC(=O)[C@H](CC(C)C)NC(=O)[C@H](CCCNC(=N)N)NC(=O)[C@H](Cc4ccc(O)cc4)NC(=O)[C@H](CCCCN)NC(=O)[C@H](CCSC)NC(=O)[C@H](CO)NC(=O)[C@H](Cc4c[nH]cn4)NC(=O)[C@H](CCCCN)NC3=O)C(=O)N[C@@H](CCCNC(=N)N)C(=O)N[C@@H](CCCCN)C(=O)N[C@@H]([C@@H](C)O)C(=O)N2)NC(=O)[C@H](CCCNC(=N)N)NC(=O)[C@H](CO)NC(=O)[C@H](CCCCN)NC(=O)[C@@H]2CCCN2C(=O)[C@H]([C@@H](C)CC)NC(=O)[C@H](Cc2cccc3ccccc23)NC(=O)[C@H](CC(=O)O)NC1=O | 0.962 | 0.86 | 0.153
